Data published in ChEMBL document CHEMBL2034840, “Automated generation of turn mimetics: proof of concept study for the MC4 receptor” (Bioorg Med Chem, 2012).

molecular target: Melanocortin receptor 4 (Homo sapiens, UniProt P32245); experiment: Displacement of [125I]NDPMSH from human MC4 receptor expressed in HEK293 cells after 2 hrs by liquid scintillation counting; format: cell-based; conditions: not given
Sequence (P32245 whole entry): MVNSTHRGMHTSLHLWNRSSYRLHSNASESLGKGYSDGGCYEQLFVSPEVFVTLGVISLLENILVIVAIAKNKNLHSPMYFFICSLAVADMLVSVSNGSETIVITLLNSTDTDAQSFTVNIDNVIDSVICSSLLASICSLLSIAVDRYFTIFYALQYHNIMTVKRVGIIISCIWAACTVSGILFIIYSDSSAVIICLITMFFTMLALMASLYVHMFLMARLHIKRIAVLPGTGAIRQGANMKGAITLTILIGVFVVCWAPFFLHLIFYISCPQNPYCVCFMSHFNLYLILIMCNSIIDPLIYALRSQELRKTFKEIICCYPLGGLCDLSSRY

Structure (SMILES) | Ki [nM]
O=C(NCCCc1ccccc1)[C@H]1CNC[C@H]1C(=O)NCc1ccc(C(F)(F)F)cc1 | 5800
O=C(CNC(=O)[C@H]1CNC[C@H]1C(=O)NCCc1c[nH]c2ccccc12)c1ccccc1 | 5500
O=C(NCc1ccccc1)[C@H]1CNC[C@H]1C(=O)NCCc1c[nH]c2ccccc12 | 5500
O=C(NCc1ccccc1)[C@@H]1CNC[C@H]1C(=O)NCc1ccccc1 | 900
O=C(NCCc1ccccc1)[C@@H]1CNC[C@H]1C(=O)NCc1ccccc1 | 1000
NCCNC(=O)[C@@H]1CNC[C@H]1C(=O)NC(=O)c1ccccc1 | 5300
O=C(NCc1ccccc1)[C@@H]1CNC[C@H]1C(=O)Nc1cccc(-c2ccccc2)c1 | 6600
O=C(NCCc1ccccc1)[C@H]1CN(CCO)C[C@H]1C(=O)NC1CCN(Cc2ccccc2)C1 (mixture of isomers) | 6200
O=C(NCCc1ccccc1)[C@H]1CN(CCOc2ccccc2)C[C@H]1C(=O)NC1CCN(Cc2ccccc2)C1 (mixture of isomers) | 1000
O=C(NCCc1ccccc1)[C@H]1CNC[C@H]1C(=O)NC1CCN(Cc2ccccc2)C1 (stereo in doubt; 3a) | 5000

Further lines, results first:

Ki [nM] | Structure (SMILES)
1800 | O=C(NCCc1cccc(F)c1)[C@H]1CN(CC2CC2)C[C@H]1C(=O)NC1CCN(Cc2ccccc2)C1 (mixture of isomers)
670 | O=C(NCCc1cccc(Cl)c1)[C@H]1CN(CC2CC2)C[C@H]1C(=O)NC1CCN(Cc2ccccc2)C1 (mixture of isomers)
380 | O=C(NCCc1ccc(Cl)cc1)[C@H]1CN(CC2CC2)C[C@H]1C(=O)NC1CCN(Cc2ccccc2)C1 (mixture of isomers)
160 | O=C(NCCc1ccc(Cl)cc1Cl)[C@H]1CN(CC2CC2)C[C@H]1C(=O)NC1CCN(Cc2ccccc2)C1 (mixture of isomers)
400 | O=C(NCc1cccc(Cl)c1)[C@H]1CN(CC2CC2)C[C@H]1C(=O)NC1CCN(Cc2ccccc2)C1 (mixture of isomers)
70 | O=C(NCc1ccc(Cl)cc1Cl)[C@H]1CN(CC2CC2)C[C@H]1C(=O)NC1CCN(Cc2ccccc2)C1 (mixture of isomers)
2600 | O=C(NCCc1ccccc1)[C@H]1CN(CC2CC2)C[C@H]1C(=O)NC1CCN(Cc2ccccc2)C1 (mixture of isomers)

same assay, conditions: hek293

Ki [nM] | Structure (SMILES)
5000 | O=C(NCCc1ccccc1)[C@H]1CNC[C@H]1C(=O)NC1CCN(Cc2ccccc2)C1 (mixture of isomers)
